Laboratory results published in PubChem BioAssay AID328 (DTP/NCI, 2004).
Values joined by “and” are separate entries in the source; they are usually repeats but may differ in a detail not shown here. Equal entries are not always repeated. Inconclusive results and toxic doses are left out. How the source made its calls: active means survival T/C of 150% or more; inactive means T/C below 125% in these data.

Test system: BDF1 mice, P388 leukemia ip, median survival T/C
Assay: NCI In Vivo Anticancer Drug Screen. Data for tumor model P388 Leukemia (intraperitoneal) in B6D2F1 (BDF1) mice
Conditions: endpoint: median survival time, higher = longer survival
Outline: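 Read-out is survival of treated animals expressed relative to the vehicle group, as a T/C ratio.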

[1] = dose: 100.0 mg/kg/injection, schedule: Q01DX009 (ip), vehicle: saline with Tween-80
[2] = dose: 100.0 mg/kg/injection, schedule: Q04DX003 (ip), vehicle: saline with Tween-80
[3] = dose: 200.0 mg/kg/injection, schedule: Q01DX009 (ip), vehicle: saline with Tween-80
[4] = dose: 200.0 mg/kg/injection, schedule: Q04DX003 (ip), vehicle: saline with Tween-80
[5] = dose: 400.0 mg/kg/injection, schedule: Q04DX003 (ip), vehicle: saline with Tween-80
[6] = dose: 100.0 mg/kg/injection, schedule: Q01DX009 (ip), vehicle: Klucel (hydroxypropylcellulose) (HPC)
[7] = dose: 100.0 mg/kg/injection, schedule: Q04DX003 (ip), vehicle: Klucel (hydroxypropylcellulose) (HPC)
[8] = dose: 200.0 mg/kg/injection, schedule: Q01DX009 (ip), vehicle: Klucel (hydroxypropylcellulose) (HPC)
[9] = dose: 200.0 mg/kg/injection, schedule: Q04DX003 (ip), vehicle: Klucel (hydroxypropylcellulose) (HPC)
[10] = dose: 400.0 mg/kg/injection, schedule: Q04DX003 (ip), vehicle: Klucel (hydroxypropylcellulose) (HPC)
[11] = dose: 100.0 mg/kg/injection, schedule: Q04DX003 (ip), vehicle: saline
[12] = dose: 200.0 mg/kg/injection, schedule: Q04DX003 (ip), vehicle: saline
[13] = dose: 400.0 mg/kg/injection, schedule: Q04DX003 (ip), vehicle: saline
[14] = dose: 50.0 mg/kg/injection, schedule: Q01DX009 (ip), vehicle: other
[15] = dose: 100.0 mg/kg/injection, schedule: Q01DX009 (ip), vehicle: other
[16] = dose: 100.0 mg/kg/injection, schedule: Q01DX001 (ip), vehicle: other
[17] = dose: 200.0 mg/kg/injection, schedule: Q01DX001 (ip), vehicle: other
[18] = dose: 400.0 mg/kg/injection, schedule: Q01DX001 (ip), vehicle: other

Measured: T/C

CC1(c2cccs2)NC(=O)NC1=O (stereo unspecified)
inactive: dose: 25.0 mg/kg/injection, schedule: Q01DX009 (ip), vehicle: saline with Tween-80 104 % of control | dose: 50.0 mg/kg/injection, schedule: Q01DX009 (ip), vehicle: saline with Tween-80 96 % of control and 124 % of control | [1] 112 % of control and 111 % of control | [2] 100 % of control | [3] 101 % of control | [4] 104 % of control and 98 % of control | [5] 100 % of control and 90 % of control

Cc1ccc2c(ccc3c[n+]4ccccc4c(C)c32)c1
inactive: dose: 12.5 mg/kg/injection, schedule: Q04DX003 (ip), vehicle: saline with Tween-80 113 % of control | dose: 25.0 mg/kg/injection, schedule: Q04DX003 (ip), vehicle: saline with Tween-80 118 % of control | dose: 33.0 mg/kg/injection, schedule: Q04DX003 (ip), vehicle: saline with Tween-80 122 % of control

O=C(Nc1cc(Cl)ccc1Cl)c1ccccc1Cl
inactive: [6] 100 % of control | [7] 104 % of control | [8] 113 % of control | [9] 104 % of control | [10] 100 % of control

CNc1ccccc1C#N
inactive: [6] 100 % of control | [7] 91 % of control | [8] 100 % of control | [10] 91 % of control

c1ccc2c(c1)[nH]c1c2c[n+]2c3c(cccc13)CCC2
inactive: dose: 3.13 mg/kg/injection, schedule: Q01DX009 (ip), vehicle: saline 119 % of control | dose: 3.66 mg/kg/injection, schedule: Q01DX009 (ip), vehicle: saline 110 % of control | dose: 5.49 mg/kg/injection, schedule: Q01DX009 (ip), vehicle: saline 105 % of control | dose: 6.25 mg/kg/injection, schedule: Q01DX009 (ip), vehicle: saline 104 % of control

CCOC1C=CC(OC(C)=O)C(COC(C)=O)O1 (stereo unspecified)
inactive: [6] 90 % of control | [7] 100 % of control | [8] 86 % of control | [9] 104 % of control | dose: 400.0 mg/kg/injection, schedule: Q01DX009 (ip), vehicle: Klucel (hydroxypropylcellulose) (HPC) 100 % of control | [10] 100 % of control

Cn1c(O)c(C=N)c(=O)[nH]c1=O
inactive: dose: 100.0 mg/kg/injection, schedule: Q01DX009 (ip), vehicle: saline 100 % of control | [11] 100 % of control | [12] 92 % of control | dose: 400.0 mg/kg/injection, schedule: Q01DX009 (ip), vehicle: saline 109 % of control | [13] 107 % of control

COC(=O)c1cc([N+](=O)[O-])ccc1Cl
inactive: [11] 98 % of control | [12] 102 % of control | [13] 100 % of control

CCC(=O)c1cc(O)ccc1O
inactive: [14] 106 % of control | [15] 97 % of control

CC(C)(C)OC(=O)NNC(c1ccccc1)c1ccccc1
inactive: dose: 50.0 mg/kg/injection, schedule: Q01DX001 (ip), vehicle: Klucel (hydroxypropylcellulose) (HPC) 91 % of control | [14] 105 % of control | dose: 100.0 mg/kg/injection, schedule: Q01DX001 (ip), vehicle: Klucel (hydroxypropylcellulose) (HPC) 91 % of control | [15] 110 % of control | [7] 105 % of control | dose: 200.0 mg/kg/injection, schedule: Q01DX001 (ip), vehicle: Klucel (hydroxypropylcellulose) (HPC) 95 % of control | dose: 200.0 mg/kg/injection, schedule: Q01DX009 (ip), vehicle: other 100 % of control | [9] 110 % of control | [10] 105 % of control

Nc1cc2c(c(Cl)c1Br)-c1ccccc1C2=O
inactive: dose: 12.5 mg/kg/injection, schedule: Q01DX009 (ip), vehicle: Klucel (hydroxypropylcellulose) (HPC) 90 % of control | dose: 25.0 mg/kg/injection, schedule: Q01DX009 (ip), vehicle: Klucel (hydroxypropylcellulose) (HPC) 86 % of control | [16] 86 % of control | [17] 104 % of control | [18] 104 % of control

CCCCC(CC)CCC(O)CC(C)C (stereo unspecified)
inactive: dose: 50.0 mg/kg/injection, schedule: Q01DX009 (ip), vehicle: Klucel (hydroxypropylcellulose) (HPC) 100 % of control | [6] 95 % of control | [7] 104 % of control | [8] 100 % of control | [9] 100 % of control | [10] 100 % of control

CC(=O)c1ccc2ccccc2c1O
inactive: [16] 90 % of control | [1] 104 % of control | [2] 109 % of control | dose: 175.0 mg/kg/injection, schedule: Q01DX009 (ip), vehicle: saline with Tween-80 122 % of control | [17] 100 % of control | [3] 104 % of control | [4] 104 % of control | [18] 95 % of control | dose: 400.0 mg/kg/injection, schedule: Q01DX009 (ip), vehicle: saline with Tween-80 118 % of control | [5] 104 % of control | dose: 600.0 mg/kg/injection, schedule: Q01DX009 (ip), vehicle: saline with Tween-80 113 % of control

O=C(Nc1cc(Cl)c(NC(=O)c2ccccc2)c(Cl)c1)c1ccccc1
inactive: dose: 12.5 mg/kg/injection, schedule: Q01DX001 (ip), vehicle: saline with Tween-80 100 % of control | dose: 25.0 mg/kg/injection, schedule: Q01DX001 (ip), vehicle: saline with Tween-80 90 % of control and 95 % of control | dose: 50.0 mg/kg/injection, schedule: Q01DX001 (ip), vehicle: saline with Tween-80 90 % of control | dose: 100.0 mg/kg/injection, schedule: Q01DX001 (ip), vehicle: saline with Tween-80 95 % of control

C=C1C(=O)OC2C=C(C)C3C(O)CC(C)(O)C3CC12 (stereo unspecified)
inactive: [6] 114 % of control | [8] 102 % of control
